Here are results for one compound from US20210205638A1, “PARATHYROID HORMONE AND REGENERATION OF DEGENERATIVE DISCS DISEASE” (THE JOHNS HOPKINS UNIVERSITY, priority 2017, published 2021).

One assay has as its system TGF-β. The assay is described as follows: ELISA of total and active TGF-β in NP tissue of aged mice. Type of assay: in vivo, mouse. The note with it: 18-month-old mice. On the procedure: For cAMP assays, confluent cells were grown in 35-mm six-well plates starved overnight by incubation in serum-free α-MEM at 37° C. The cells were then treated with 100 nM human of human PTH (1-34; Bachem Calif., Inc.) for 1 h. Cellular cAMP was extracted and the concentration measured with the Biotrak enzyme immunoassay system (GE Healthare, Inc., Princeton, HJ). We determined the concentration of total and active TGF-β in the NP tissue using the ELISA Development Kit (R&D Systems) according to the manufacturer's instructions.
In general terms: In an ELISA, binding on a coated surface is turned into a signal by an enzyme label.

The subject of another assay is IFT88-/- mice. Description: iPTH in IFT88-/- and wild-type mice: PPCT IVD volume and IVD histological score. In kind it is in vivo, mouse. The text has this: Mice carrying the PTH1R gene flanked by loxP sites (PTH1R^flox/flox) were mated with Noto^Cre mice to generate mice bearing Noto^Cre and a floxed PTH1R allele in their germline. These mice were backcrossed to homozygous floxed mice (Noto^Cre/+/PTH1R^flox/+::PTH1R^flox/flox) to generate mice with inactivation of both alleles in notochord derived cells (genotype […]). Homozygous disruption of the Noto locus is perinatally lethal; viable offspring have genotypes of either Noto^Cre/+:: PTH1R^flox/flox (mice with PTH1R conditional deletion in Noto lineage cells are referred to as “[…]” in the text) or Noto^+/+:: PTH1R^flox/flox (wild-type littermates hereinafter referred to as “PTH1R^+/+” in the text). The genotype of transgenic mice was determined by PCR analyses of genomic DNA isolated from mouse tails. The floxed PTH1R allele was identified with primers lox1F (5-[…] ID NO: 1) and lox1R (5-[…] ID NO: 2). The genotyping for the Cre transgene was performed by PCR with the primers […] ID NO: 3) […] ID NO: 4). We generated Noto^Cre/+:: ROSA26-lacZ^flox/flox by crossing Noto mice with mice homozygous with a loxP-flanked DNA stop sequence, preventing expression of the downstream lacZ gene. IFT88^flox/flox mouse model has been generated as descripted. A NP tissue-specific primary cilia knock-out (KO) mouse line was generated by crossing NotoCre mice with IFT88^flox/flox mice, in which the primary cilia were deleted from the NP tissue. The loxP IFT88 allele was identified with the primers lox2F ([NT] ID NO: 5) and lox2R ([NT] ID NO: 6). The 11 month-old PTH1R^+/+ and PTH1R^-/- male mice were randomized into four groups: PTH1R^+/++PTH (1-34), PTH1R^+/++Vehicle, PTH1R^-/-+PTH (1-34) and PTH1R^-/-+Vehicle groups (n=8 per group). […] Quantitative histomorphometric analysis was conducted in a blinded fashion with Image-Pro Plus Software version 6.0 (Media Cybernetics Inc). […] Five randomly selected sections per mice in each group at L3-L4 level were chosen for quantitative histomorphometric analysis. […] The percentage area of CCN2 and ACAN positive staining was calculated by measuring the positive area to the whole area of the L3-L4 in each group. […] The images were reconstructed and analyzed using the GPU-CT-Reconstruction software (applied by the BL13W1 experimental station) and the VG Studio Max 3D software (version 2.1, Volume Graphics GmbH, Germany) respectively. […] The 3D quantitative analysis of IVDs was performed with the commercially available Image Pro Analyzer 3D software (Version 7.0, Media Cybernetics, Inc., USA). The 3D structural parameters analyzed for the mean height and volume and thickness distribution of IVDs. […]

With `CC[C@H](C)[C@H](NC(=O)[C@H](CCC(=O)O)NC(=O)[C@H](CO)NC(=O)[C@@H](NC(=O)[C@@H](N)CO)C(C)C)C(=O)N[C@@H](CCC(N)=O)C(=O)N[C@@H](CC(C)C)C(=O)N[C@@H](CCSC)C(=O)N[C@@H](Cc1cnc[nH]1)C(=O)N[C@@H](CC(N)=O)C(=O)N[C@@H](CC(C)C)C(=O)NCC(=O)N[C@@H](CCCCN)C(=O)N[C@@H](Cc1cnc[nH]1)C(=O)N[C@@H](CC(C)C)C(=O)N[C@@H](CC(N)=O)C(=O)N[C@@H](CO)C(=O)N[C@@H](CCSC)C(=O)N[C@@H](CCC(=O)O)C(=O)N[C@@H](CCCN=C(N)N)C(=O)N[C@H](C(=O)N[C@@H](CCC(=O)O)C(=O)N[C@@H](Cc1c[nH]c2ccccc12)C(=O)N[C@@H](CC(C)C)C(=O)N[C@@H](CCCN=C(N)N)C(=O)N[C@@H](CCCCN)C(=O)N[C@@H](CCCCN)C(=O)N[C@@H](CC(C)C)C(=O)N[C@@H](CCC(N)=O)C(=O)N[C@@H](CC(=O)O)C(=O)N[C@H](C(=O)N[C@@H](Cc1cnc[nH]1)C(=O)N[C@@H](CC(N)=O)C(=O)N[C@@H](Cc1ccccc1)C(=O)O)C(C)C)C(C)C` [PTH (1-34), teriparatide], in the assay on TGF-β, the “level of active TGF-β in IVDs” value is listed as “increased” and the “total TGF-β level” value is listed as “not changed”. Moreover, the “improvement of IVD scores by iPTH” value with IFT88-/- mice (IFT88-/- mice) is on record as “impaired”. Besides, the “iPTH-increased IVD volume” value in the assay on IFT88-/- mice (IFT88-/- mice relative to wild-type mice) is “blunted”. In addition, in the assay with IFT88-/- mice (wild-type mice), the IVD scores result was “improvement” and the IVD volume entry is “increased”.
